Data taken from patent publication US20140274688A1, “MOLECULES HAVING CERTAIN PESTICIDAL UTILITIES, AND INTERMEDIATES, COMPOSITIONS, AND PROCESSES RELATED THERETO” (DOW AGROSCIENCES LLC, priority 2013, published 2014).
Like-named read-outs stand apart in the source and are kept apart here.

Experiments:
[1] = system: Beet Armyworm (Spodoptera exigua) ("BAW"); experiment: Bioassay on Beet Armyworm (BAW), 128-well diet tray assay, percent mortality; assay type: in vivo; conditions: for BAW rating (percent mortality class): Beet Armyworm, 128-well diet tray assay; for pest or weed control at 50 µg/cm2: Spodoptera exigua, read-out: BAW
Procedure, shortened: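 Larvae in covered diet trays held at 25 °C, 14:10 light-dark, for five to seven days. Percent mortality scored per well and averaged over eight wells per treatment.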

[2] = system: Cabbage Looper (Trichoplusia ni) ("CL"); experiment: Bioassay on Cabbage Looper (CL), 128-well diet tray assay, percent mortality; assay type: in vivo; conditions: for CL rating (percent mortality class): Cabbage Looper, 128-well diet tray assay; for pest or weed control at 50 µg/cm2: Trichoplusia ni, read-out: CL
Procedure, shortened: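 Larvae held in covered diet trays at 25 °C, 14:10 light-dark, for five to seven days. Percent mortality scored per well and averaged over eight wells.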

[3] = system: Yellow Fever Mosquito "YFM" (Aedes aegypti); conditions: for YFM rating (mortality class): Yellow Fever Mosquito larvae, 96-well plates; for YFM: rating of mortality, Yellow Fever Mosquito

| Compound | BAW rating (percent mortality class) [1] | CL rating (percent mortality class) [2] | YFM rating (mortality class) [3] | pest or weed control at 50 µg/cm2 [1] [%] | pest or weed control at 50 µg/cm2 [2] [%] | YFM ([3]; Table ABC (P)) | YFM ([3]; Table ABC (PC)) |
| --- | --- | --- | --- | --- | --- | --- | --- |
| Cc1ccc(C(C)C)c(N2C(=O)CS/C2=N\C(=O)NCCc2ccc(-c3ncn(-c4ccc(OC(F)(F)C(F)(F)F)cc4)n3)cc2)c1 [F9, (Z)-1-(3-(2-isopropyl-5-methylphenyl)-4-oxothiazolidin-2-ylidene)-3-(4-(1-(4-(perfluoroethoxy)phenyl)-1H-1,2,4-triazol-3-yl)phenethyl)urea] | A (50-100) | A (50-100) | A (80-100) |  |  |  |  |
| CC(C)c1ccccc1NC(=S)NC(=O)NCc1ccc(-c2ncn(-c3ccc(OC(F)(F)F)cc3)n2)cc1 [F14, N-[2-(propan-2-yl)phenyl]-N′-(4-{1-[4-(trifluoromethoxy)phenyl]-1H-1,2,4-triazol-3-yl}benzyl)dicarbonimidothioic diamide] | A (50-100) | A (50-100) | A (80-100) |  |  |  |  |
| Cc1ccc(C(C)C)c(N2C(=O)CS/C2=N\C(=O)NCCCc2ccc(-c3ncn(-c4ccc(OC(F)(F)F)cc4)n3)cc2)c1 [F20, (Z)-1-(3-(2-isopropyl-5-methylphenyl)-4-oxothiazolidin-2-ylidene)-3-(3-(4-(1-(4-(trifluoromethoxy)phenyl)-1H-1,2,4-triazol-3-yl)phenyl)propyl)urea] | A (50-100) | A (50-100) | A (80-100) |  |  |  |  |
| Cc1ccc(C(C)C)c(NC(=S)NC(=O)NCCCc2ccc(-c3ncn(-c4ccc(OC(F)(F)F)cc4)n3)cc2)c1 [F21, 1-[(2-isopropyl-5-methyl-phenyl)carbamothioyl]-3-[3-[4-[1-[4-(trifluoromethoxy)phenyl]-1,2,4-triazol-3-yl]phenyl]propyl]urea] | A (50-100) | A (50-100) | A (80-100) |  |  |  |  |
| CC(C)c1ccccc1N1C(=O)CS/C1=N\C(=O)NC1CC1c1ccc(-c2ncn(-c3ccc(OC(F)(F)F)cc3)n2)cc1 (stereo not shown) [F29, (Z)-1-(3-(2-isopropylphenyl)-4-oxothiazolidin-2-ylidene)-3-(2-(4-(1-(4-(trifluoromethoxy)phenyl)-1H-1,2,4-triazol-3-yl)phenyl)cyclopropyl)urea] | A (50-100) | A (50-100) | A (80-100) |  |  |  |  |
| Cc1ccc(N2C(=O)CS/C2=N\C(=O)NCCc2ccc(-c3ncn(-c4ccc(OC(F)(F)F)cc4)n3)cc2)c(C(C)C)c1 [P26, (Z)-1-(3-(2-isopropyl-4-methylphenyl)-4-oxothiazolidin-2-ylidene)-3-(4-(1-(4-(trifluoromethoxy)phenyl)-1H-1,2,4-triazol-3-yl)phenethyl)urea] |  |  |  | 50 to 100 | 50 to 100 | A (80-100) |  |
| Cc1cccc(N2C(=O)CS/C2=N\C(=O)NCCc2ccc(-c3ncn(-c4ccc(OC(F)(F)F)cc4)n3)cc2)c1C(C)C [P27, (Z)-1-(3-(2-isopropyl-3-methylphenyl)-4-oxothiazolidin-2-ylidene)-3-(4-(1-(4-(trifluoromethoxy)phenyl)-1H-1,2,4-triazol-3-yl)phenethyl)urea] |  |  |  | 50 to 100 | 50 to 100 | A (80-100) |  |
| CC(C)c1cc(F)ccc1N1C(=O)CS/C1=N\C(=O)NCCc1ccc(-c2ncn(-c3ccc(OC(F)(F)F)cc3)n2)cc1 [P28, (Z)-1-(3-(4-fluoro-2-isopropylphenyl)-4-oxothiazolidin-2-ylidene)-3-(4-(1-(4-(trifluoromethoxy)phenyl)-1H-1,2,4-triazol-3-yl)phenethyl)urea] |  |  |  | 50 to 100 | 50 to 100 | A (80-100) |  |
| CCCc1ccc(C)cc1N1C(=O)CS/C1=N\C(=O)NCCc1ccc(-c2ncn(-c3ccc(OC(F)(F)F)cc3)n2)cc1 [P29, (Z)-1-(3-(5-methyl-2-propylphenyl)-4-oxothiazolidin-2-ylidene)-3-(4-(1-(4-(trifluoromethoxy)phenyl)-1H-1,2,4-triazol-3-yl)phenethyl)urea] |  |  |  | 50 to 100 | 50 to 100 | A (80-100) |  |
| CC(C)(C)c1ccccc1N1C(=O)CS/C1=N\C(=O)NCCc1ccc(-c2ncn(-c3ccc(OC(F)(F)F)cc3)n2)cc1 [P30, (Z)-1-(3-(2-(tert-butyl)phenyl)-4-oxothiazolidin-2-ylidene)-3-(4-(1-(4-(trifluoromethoxy)phenyl)-1H-1,2,4-triazol-3-yl)phenethyl)urea] |  |  |  | 50 to 100 | 50 to 100 | A (80-100) |  |
| CCc1cc(C)ccc1N1C(=O)CS/C1=N\C(=O)NCCc1ccc(-c2ncn(-c3ccc(OC(F)(F)F)cc3)n2)cc1 [P31, (Z)-1-(3-(2-ethyl-4-methylphenyl)-4-oxothiazolidin-2-ylidene)-3-(4-(1-(4-(trifluoromethoxy)phenyl)-1H-1,2,4-triazol-3-yl)phenethyl)urea] |  |  |  | 50 to 100 | 50 to 100 | A (80-100) |  |
| CC(Cc1ccc(-c2ncn(-c3ccc(OC(F)(F)F)cc3)n2)cc1)NC(=O)/N=C1\SCC(=O)N1c1ccc(F)cc1C(C)C (stereo not shown) [P33, (Z)-1-(3-(4-fluoro-2-isopropylphenyl)-4-oxothiazolidin-2-ylidene)-3-(1-(4-(1-(4-(trifluoromethoxy)phenyl)-1H-1,2,4-triazol-3-yl)phenyl)propan-2-yl)urea] |  |  |  | 50 to 100 | 50 to 100 | A (80-100) |  |
| CCc1cccc(C)c1N1C(=O)CS/C1=N\C(=O)NC(C)Cc1ccc(-c2ncn(-c3ccc(OC(F)(F)F)cc3)n2)cc1 (stereo not shown) [P42, (Z)-1-(3-(2-ethyl-6-methylphenyl)-4-oxothiazolidin-2-ylidene)-3-(1-(4-(1-(4-(trifluoromethoxy)phenyl)-1H-1,2,4-triazol-3-yl)phenyl)propan-2-yl)urea] |  |  |  | 50 to 100 | 50 to 100 | A (80-100) |  |
| COc1ccc(N2C(=O)CS/C2=N\C(=O)NCCc2ccc(-c3ncn(-c4ccc(OC(F)(F)F)cc4)n3)cc2)c(C)c1 [P44, (Z)-1-(3-(4-methoxy-2-methylphenyl)-4-oxothiazolidin-2-ylidene)-3-(4-(1-(4-(trifluoromethoxy)phenyl)-1H-1,2,4-triazol-3-yl)phenethyl)urea] |  |  |  | 50 to 100 | 50 to 100 | A (80-100) |  |
| COc1ccc(N2C(=O)CS/C2=N\C(=O)NC(C)Cc2ccc(-c3ncn(-c4ccc(OC(F)(F)F)cc4)n3)cc2)c(C)c1 (stereo not shown) [P45, (Z)-1-(3-(4-methoxy-2-methylphenyl)-4-oxothiazolidin-2-ylidene)-3-(1-(4-(1-(4-(trifluoromethoxy)phenyl)-1H-1,2,4-triazol-3-yl)phenyl)propan-2-yl)urea] |  |  |  | 50 to 100 | 50 to 100 | A (80-100) |  |
| COc1cc(C)c(N2C(=O)CS/C2=N\C(=O)NCCc2ccc(-c3ncn(-c4ccc(OC(F)(F)F)cc4)n3)cc2)c(C)c1 [P47, (Z)-1-(3-(4-methoxy-2,6-dimethylphenyl)-4-oxothiazolidin-2-ylidene)-3-(4-(1-(4-(trifluoromethoxy)phenyl)-1H-1,2,4-triazol-3-yl)phenethyl)urea] |  |  |  | 50 to 100 | 50 to 100 | A (80-100) |  |
| CCc1ccc(C)cc1N1C(=O)CS/C1=N\C(=O)NCCc1ccc(-c2ncn(-c3ccc(OC(F)(F)F)cc3)n2)cc1 [P49, (Z)-1-(3-(2-ethyl-5-methylphenyl)-4-oxothiazolidin-2-ylidene)-3-(4-(1-(4-(trifluoromethoxy)phenyl)-1H-1,2,4-triazol-3-yl)phenethyl)urea] |  |  |  | 50 to 100 | 50 to 100 | A (80-100) |  |
| CCc1cccc(C)c1N1C(=O)CS/C1=N\C(=O)NCCc1ccc(-c2ncn(-c3ccc(OC(F)(F)F)cc3)n2)cc1 [P50, (Z)-1-(3-(2-ethyl-6-methylphenyl)-4-oxothiazolidin-2-ylidene)-3-(4-(1-(4-(trifluoromethoxy)phenyl)-1H-1,2,4-triazol-3-yl)phenethyl)urea] |  |  |  | 50 to 100 | 50 to 100 | A (80-100) |  |
| CCC(CNC(=O)/N=C1\SCC(=O)N1c1ccccc1C(C)C)c1ccc(-c2ncn(-c3ccc(OC(F)(F)F)cc3)n2)cc1 (stereo not shown) [P209, (Z)-1-(3-(2-isopropylphenyl)-4-oxothiazolidin-2-ylidene)-3-(2-(4-(1-(4-(trifluoromethoxy)phenyl)-1H-1,2,4-triazol-3-yl)phenyl)butyl)urea] |  |  |  | 50 to 100 |  | A (80-100) |  |
| CCC(CNC(=O)/N=C1\SCC(=O)N1c1cc(OC)ccc1C(C)C)c1ccc(-c2ncn(-c3ccc(OC(F)(F)F)cc3)n2)cc1 (stereo not shown) [P683, (Z)-1-(3-(2-isopropyl-5-methoxyphenyl)-4-oxothiazolidin-2-ylidene)-3-(2-(4-(1-(4-(trifluoromethoxy)phenyl)-1H-1,2,4-triazol-3-yl)phenyl)butyl)urea] |  |  |  | 50 to 100 |  | A (80-100) |  |
| CCCc1ccc(C)cc1NC(=S)NC(=O)NCCCCc1ccc(-c2ncn(-c3ccc(OC(F)(F)F)cc3)n2)cc1 [PC151, 1-[(5-methyl-2-propyl-phenyl)carbamothioyl]-3-[4-[4-[1-[4-(trifluoromethoxy)phenyl]-1,2,4-triazol-3-yl]phenyl]butyl]urea] |  |  |  | 50 to 100 | 50 to 100 |  |  |
| CCc1cccc(C)c1NC(=S)NC(=O)NCCCCc1ccc(-c2ncn(-c3ccc(OC(F)(F)F)cc3)n2)cc1 [PC153, 1-[(2-ethyl-6-methyl-phenyl)carbamothioyl]-3-[4-[4-[1-[4-(trifluoromethoxy)phenyl]-1,2,4-triazol-3-yl]phenyl]butyl]urea] |  |  |  |  |  |  | B (More than 0-Less than 80) |
